The source of these data is patent EP2072514A1, “1(2)H-tetrazol-5-yl-phenyl-oxazolidinones as antibacterial agents” (Ferrer Internacional, S.A., priority 2007, dated 2009).

≈ marks a conversion by molar mass, not a printed value.

For one assay, the system named is S. Aureus MR. The assay can be described thus: MIC by standard micro dilution method (NCCLS M7-A5). The assay is classed as cell-based, Staphylococcus aureus. Particulars: Mueller-Hinton medium (cation-adjusted), 16-24 h at 35°C; for MIC: Staphylococcus aureus, read-out: Geometric Mean MIC.
In the next assay the test system is S. epidermidis. The description is as above. The assay is classed as cell-based, Staphylococcus epidermidis. Particulars: Mueller-Hinton medium (cation-adjusted), 16-24 h at 35°C; for MIC: Staphylococcus epidermidis, read-out: Geometric Mean MIC.
A further assay concerns S. pneumoniae. Described as above. It counts as cell-based, Streptococcus pneumoniae. Particulars: 20-24h at 35°C; for MIC: Streptococcus pneumoniae, 5% CO2, read-out: Geometric Mean MIC.
Assay [1] has as its system Moxarella, Pasteurella and Bacteroides spp. Particulars: background art; cited from earlier work.
The next assay deals with T1, human MAO-A (Homo sapiens, UniProt P21397).
T1 construct: purchased Gentest, BD, USA; host or cells: SF9 cells (membranes)
T1 sequence (P21397 1-527): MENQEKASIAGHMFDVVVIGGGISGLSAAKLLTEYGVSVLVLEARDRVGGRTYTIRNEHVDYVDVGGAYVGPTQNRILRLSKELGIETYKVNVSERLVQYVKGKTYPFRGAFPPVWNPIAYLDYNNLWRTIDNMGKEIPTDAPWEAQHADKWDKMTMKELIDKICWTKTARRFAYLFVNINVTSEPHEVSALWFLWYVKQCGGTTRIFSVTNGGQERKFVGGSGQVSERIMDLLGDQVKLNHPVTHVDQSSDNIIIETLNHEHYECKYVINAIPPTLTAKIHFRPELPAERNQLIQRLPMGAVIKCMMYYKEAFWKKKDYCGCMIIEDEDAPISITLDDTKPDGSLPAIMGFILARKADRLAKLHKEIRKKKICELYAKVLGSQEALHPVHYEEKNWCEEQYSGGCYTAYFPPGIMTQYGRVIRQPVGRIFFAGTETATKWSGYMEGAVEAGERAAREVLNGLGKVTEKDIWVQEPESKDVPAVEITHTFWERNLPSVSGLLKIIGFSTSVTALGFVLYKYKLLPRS
The assay can be described thus: In vitro MAO-A enzymatic activity (kynuramine substrate, fluorometry). It counts as biochemical. Particulars: membranes from SF9 cells expressing human MAO-A; kynuramine 30 µM, 37° for 40 min. The procedure: (§1) MAO-A and MAO-B enzymatic activities were measured using membranes obtained from SF9 cells expressing either human MAO-A or human MAO-B (Gentest, BD, USA). Assays were done in blank 96-well micro titter plates using kynuramine as substrate and measuring the formation of 4-hydroxyquinoline by fluorescence at 340 nm/465 nm. Briefly, membranes with MAO-A (0.006 mg/mL protein) and MAO-B (0.015 mg/mL protein) were incubated with kynuramine, 30 µM), at 37° for 40 min in the presence of the compound in a final volume of 200 µL. Reactions were stopped by adding NaOH 2N and the reaction product, 4-hydroxyquinoline, was determined by fluorometry using a Tecan Ultra reader.

The target in a further assay is T2, human MAO-B (Homo sapiens, UniProt P27338).
T2 construct: purchased Gentest, BD, USA; host or cells: SF9 cells (membranes)
T2 sequence (P27338 1-520): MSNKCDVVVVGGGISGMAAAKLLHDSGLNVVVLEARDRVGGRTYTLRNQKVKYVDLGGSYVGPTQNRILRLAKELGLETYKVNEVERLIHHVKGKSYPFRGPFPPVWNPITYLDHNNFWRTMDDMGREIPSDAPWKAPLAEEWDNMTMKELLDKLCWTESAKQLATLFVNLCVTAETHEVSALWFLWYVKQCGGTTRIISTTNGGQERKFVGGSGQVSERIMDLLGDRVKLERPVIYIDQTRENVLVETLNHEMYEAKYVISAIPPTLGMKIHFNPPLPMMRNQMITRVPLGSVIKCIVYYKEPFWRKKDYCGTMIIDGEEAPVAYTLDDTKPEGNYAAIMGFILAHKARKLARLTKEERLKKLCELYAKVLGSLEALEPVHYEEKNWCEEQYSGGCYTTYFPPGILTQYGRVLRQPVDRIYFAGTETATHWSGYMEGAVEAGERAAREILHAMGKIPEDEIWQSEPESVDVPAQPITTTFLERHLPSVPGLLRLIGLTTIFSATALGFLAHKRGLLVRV
Put plainly: In vitro MAO-B enzymatic activity (kynuramine substrate, fluorometry). Particulars: membranes from SF9 cells expressing human MAO-B; kynuramine 30 µM, 37° for 40 min. The assay is classed as biochemical. The procedure:
as §1

For “N-[[(5S)-3-[3-fluoro-4-(1-hydroxyethyl-1H-tetrazol-5-yl)-phenyl]-2-oxo-5-oxazolidinyl]methyl]acetamide [Example 8]”, the “Geometric Mean MIC” value with S. Aureus MR is given as 2 µg/mL; in the assay on S. epidermidis it was 1 µg/mL; in the assay with S. pneumoniae (5% CO2) it was 2 µg/mL.

One may read the MIC as the smallest concentration in the dilution series that meets the test's criterion for growth inhibition. As for `CC(=O)NC[C@H]1CN(c2ccc(N3CCOCC3)c(F)c2)C(=O)O1` [Linezolid, N-[[(5S)-3-[3-fluoro-4-(4-morpholinyl)phenyl]-2-oxo-5-oxazolidinyl]methyl]acetamide, reference compound], the MIC with S. Aureus MR, with S. epidermidis and in the assay on S. pneumoniae was 1 µg/mL (≈ 2.96 µM) in each case. In addition, the MICs in assay [1] was 2 to 8 µg/mL.

The term Ki denotes a measure of affinity in units of concentration, obtained from inhibition or displacement. High values mean a looser hold on the target, low ones a stronger hold on the target. For `CC(=O)NC[C@H]1CN(c2ccc(-c3nnn(CCO)n3)c(F)c2)C(=O)O1` [Example 7, N-[[(5S)-3-[3-fluoro-4-(2-hydroxyethyl-2H-tetrazol-5-yl)-phenyl]-2-oxo-5-oxazolidinyl]methyl]acetamide], the Ki at human MAO-A was found to be 28.8 µM; on human MAO-B it was 8.1 µM.

Take `CC(=O)NC[C@H]1CN(c2ccc(-c3nnnn3C)c(F)c2)C(=O)O1` [Example 2, N-[[(5S)-3-[3-fluoro-4-(1-methyl-1H-tetrazol-5-yl)-phenyl]-2-oxo-5-oxazolidinyl]methyl]acetamide]: the MIC in the assay on S. Aureus MR, in the assay on S. epidermidis and in the assay on S. pneumoniae was 2 µg/mL (≈ 5.98 µM) each time. Further, the Ki on human MAO-A is 74.2 µM; on human MAO-B, 14.2 µM.

For “N-[[(5S)-3-[3-fluoro-4-(2-acetoacetyl-2H-tetrazol-5-yl)-phenyl]-2-oxo-5-oxazolidinyl]methyl]acetamide [Example 6]”, the Ki on human MAO-A is 37.1 µM; at human MAO-B, 10.1 µM.
